One data set has as its target S. schleiferi DXR enzyme (Staphylococcus schleiferi, UniProt A0ABF7SXB4). Briefly: S. schleiferi DXR enzyme activity and inhibition (NADPH oxidation at 340 nm). In kind it is biochemical. The method, then: (§1) . The sequence was confirmed by Sanger sequencing and the plasmid was transformed into E. coli BL21(DE3) pLysS (Life Technologies). Gene expression was induced for 2 h with 1 mM isopropyl-β-D-thiogalactoside (IPTG) and cells were harvested by centrifugation at 4274 x g for 10 min at 4°C. The cell pellet was lysed by sonication in lysis buffer containing 25 mM Tris HCl (pH 7.5), 100 mM NaCl, 20 mM imidazole, 10% glycerol, 1 mM MgCl2, 1 mM dithiothreitol (DTT), 1 mg/mL lysozyme, 75 U benzonase and 1 Complete Mini EDTA-free protease inhibitor tablet (Roche Applied Science). The hexahistidine-tagged DXR protein was affinity purified from soluble lysate via nickel agarose beads (Gold Biotechnology). Bound protein was eluted in 300 mM imidazole, 25 mM Tris HCl (pH 7.5), 1 mM MgCl2 and 100 mM NaCl. Purified protein was dialyzed in buffer containing 10% glycerol without imidazole prior to analysis. The enzyme was frozen in liquid nitrogen and stored permanently at -80°C.
Oxidation of NADPH to NADP^+ as a result of substrate turnover was monitored at 340 nm in a POLARstar Omega microplate reader (BMG Labtech)[73]. […] Reactions were initiated by the addition of DOXP after 15 min incubation of the reaction mixture without DOXP at 37°C. Absorption at 340 nm was measured continuously for up to 45 min. For Km [DOXP] determination, DOXP concentrations between 0 and 2 mM were tested at 0.5 mM NADPH. The linear range of enzyme activity was determined by varying the DXR concentration at 1 mM DOXP and 1 mM NADPH. IC50 assays were performed using the standard reaction conditions with the respective amount of DXR inhibitor added to obtain the given final concentrations. Data points from at least three independent replicates were analyzed by nonlinear regression using GraphPad Prism software. Slopes of changing absorbance values were converted to (μM DOXP)(mg enzyme)^-1 s ^-1 using a NADPH standard curve (data not shown). For the determination of the inhibitory constant Ki [FSM] of DXR, enzyme activity over a range of DOXP substrate concentrations between 0 and 2 mM was measured for FSM between 0 mM to 4 mM. Data points from at least three independent replicates were analyzed as described above.

Another data set deals with HepG2 cells. Set-up: method as in PMID 28827774, PMID 30192536. Conditions: previous work ref [42], [53]; read-out: IC50 against HepG2 cells; cited from earlier work.
The subject of data set [1] is S. schleiferi. Briefly: Growth inhibition assay of Staphylococcus species (OD600, 20 h). Conditions: read-out: S. schleiferi IC50.
In data set [2] the test system is S. pseudintermedius. The data set is described as above. The note with it: read-out: S. pseudintermedius IC50.
A further data set relates to S. aureus. Described as above. Conditions: for IC50: Staphylococcus aureus, read-out: S. aureus IC50.
Data set [3] relates to S. schleiferi. Briefly: MIC by microtiter broth dilution, wild-type and FSM-resistant strains.
In another data set the test system is Escherichia coli. Briefly: microbe, parasite or virus in culture. It is filed as cell-based. The note with it: Escherichia coli; BW25113; mean ± SD.
For the next data set, the system named is Klebsiella pneumoniae. Kind of data set: Growth inhibition assay for Gram-negative bacteria. In kind it is cell-based. Conditions: Klebsiella pneumoniae, ATCC43816; ATCC 43816; mean ± SD.
A further data set relates to Salmonella typhimurium. Kind of data set: Growth inhibition assay for Gram-negative bacteria. It is filed as cell-based. Conditions: Salmonella enterica, strain 04-018-0254, mean ± SD.
The subject of a further data set is Shigella sonnei. Kind of data set: microbe, parasite or virus in culture. In kind it is cell-based. Conditions: mean ± SD.
A further data set deals with Serratia marcescens. Kind of data set: Growth inhibition assay for Gram-negative bacteria. It is filed as cell-based. The note with it: strain 137.01, mean ± SD.
For data set [4], the system named is Burkholderia thailandensis. Kind of data set: microbe, parasite or virus in culture. It is filed as cell-based. The note with it: read-out: Burkholderia thailandensis IC50.
Data set [5] deals with S. schleiferi. Briefly: Minimum bactericidal (MBC) assay, CFU after 24 h. The note with it: 1 x and 10 x IC50, 24 h, CFU/mL.
The subject of data set [6] is S. pseudintermedius. Briefly: Minimum bactericidal (MBC) assay, CFU after 24 h. The note with it: 1 x and 10 x IC50, 24 h, CFU/mL.
The test system of data set [7] is MEP pathway. Briefly: Targeted LC-MS/MS profiling of MEP pathway intermediates. Conditions: FSM at 10x IC50, 2 h, vs untreated.
Data set [8] has as its system MEP pathway. The data set is described as above. The note with it: FSM at 10x IC50, 2 h, vs untreated. This is another data set of the same source.
Data set [9] deals with S. pseudintermedius. Kind of data set: MIC by microtiter broth dilution, wild-type and FSM-resistant strains. Background: Broth dilution looks for growth in wells or tubes with falling amounts of substance.
Substrate in data set [10]: CC(=O)[C@@H](O)[C@H](O)COP(=O)(O)O
Kind of data set: S. schleiferi DXR enzyme activity and inhibition (NADPH oxidation at 340 nm). In kind it is biochemical. Conditions: other: 0.5 mM NADPH; pH 7.5; 37.0 °C. The method, then:
as §1, with “Bound protein was eluted in 300 mM imidazole, 25 mM Tris HCl (pH 7.5), 1 mM MgCl2 and 100 mM NaCl. Purified protein was dialyzed in buffer containing 10% glycerol without imidazole prior to analysis. The enzyme was frozen in liquid nitrogen and stored permanently at -80°C.” left out
Oxidation of NADPH to NADP^+ as a result of substrate turnover was monitored at 340 nm in a POLARstar Omega microplate reader (BMG Labtech)[73]. […] Absorption at 340 nm was measured continuously for up to 45 min. […] The linear range of enzyme activity was determined by varying the DXR concentration at 1 mM DOXP and 1 mM NADPH. […] Data points from at least three independent replicates were analyzed by nonlinear regression using GraphPad Prism software. Slopes of changing absorbance values were converted to (μM DOXP)(mg enzyme)^-1 s ^-1 using a NADPH standard curve (data not shown). […] Data points from at least three independent replicates were analyzed as described above.

The mark [11] stands for this setting: purified recombinant enzyme, mean ± SEM, read-out: S. schleiferi DXR enzyme IC50.

In brackets after ≈: the same amount, converted by molar mass. Like-named read-outs stand apart in the source and are kept apart here. Where only a bound is given, the exact number is not on record here.

Consider `CC(C)(C)C(=O)OCOP(=O)(/C=C/CN(O)C=O)OCOC(=O)C(C)(C)C` [Compound 4], for which the “inhibition of purified recombinant S. schleiferi DXR in vitro” value at S. schleiferi DXR enzyme (prodrug, uncleaved) is recorded as “poorly inhibit”. Also, the IC50 (commonly the concentration that inhibits the measured activity by half) was 12.6 ± 1.98 µM at S. schleiferi DXR enzyme (setting [11]); > 50 µM in the data set with HepG2 cells; 0.03 µM with S. schleiferi [1]; 0.21 ± 0.04 µM in the data set with S. pseudintermedius [2]; > 90 µM in the data set with S. aureus. For the same molecule, in the data set with S. schleiferi [3] (strains 3408, 4494, 7376, 8400), the “sensitivity of FSM^R glpT mutant S. schleiferi strains (MIC fold change vs WT)” value was “remain sensitive”.
Regarding `CC(=O)N(O)C/C=C/P(=O)(O)O` [Compound 1], the IC50 was 3.31 ± 1.02 µM against S. schleiferi DXR enzyme, 55.5 ± 2.41 µM in the data set with S. schleiferi [1], 54.5 ± 1.14 µM in the data set on S. pseudintermedius [2] and > 100 µM in the data set with S. aureus.
In the case of `O=CN(O)CCCP(=O)(O)O` [FSM, fosmidomycin], the Ki (in general, a dissociation constant, usually derived from enzyme kinetics or from competition with a known ligand) at S. schleiferi DXR enzyme (competitive with respect to the DOXP substrate) was 0.29 ± 0.022 µM. Besides, the 50% inhibitory concentration (IC50) at S. schleiferi DXR enzyme (setting [11]) was 0.67 ± 0.06 µM; in the data set with Escherichia coli it was 0.29 ± 0.08 µM; in the data set with Klebsiella pneumoniae, 0.81 ± 0.56 µM; in the data set on Salmonella typhimurium, 0.23 ± 0.03 µM; with Shigella sonnei, 1.16 ± 0.69 µM; in the data set on Serratia marcescens, 0.39 ± 0.02 µM. For the same molecule, the IC50 is > 100 µM in data set [4], 0.78 ± 0.13 µM with S. schleiferi [1], 0.31 ± 0.04 µM in the data set on S. pseudintermedius [2] and > 100 µM in the data set on S. aureus. For the same molecule, the “mode of DXR inhibition” value at S. schleiferi DXR enzyme (with respect to the DOXP substrate) was “competitive”. Also, the “mechanism-of-action on viable cells” value in the data set with S. schleiferi [5] and with S. pseudintermedius [6] was “bacteriostatic” in each case. The “increase of intracellular DOXP level” value in the data set on MEP pathway [7] is listed as 23.8 fold; in the data set with MEP pathway [8], 34.8 fold. For the same molecule, the “reduction of intracellular CDP-ME level” value in the data set with MEP pathway [7] stood at 5.5 fold; with MEP pathway [8], 2.6 fold. Further, the results for the “reduction of intracellular MEcPP level” value in the data set on MEP pathway [7] and with MEP pathway [8] were 4.5 fold and 2.4 fold, respectively. The “inhibition of S. aureus growth” value in the data set with S. aureus is given as “neither FSM nor FR-900098 inhibit S. aureus growth”. Besides, the MIC (as a rule, the smallest concentration in the dilution series that meets the test's criterion for growth inhibition) with S. schleiferi [3] (read-out: FSM MIC, Parental S. schleiferi) was 19.8 µM (≈ 3.63 µg/mL); with S. schleiferi [3] (read-out: FSM MIC, strain SSCH1903, GlpT G99X), 719 µM (≈ 132 µg/mL); in the data set on S. schleiferi [3] (read-out: FSM MIC, strain SSCH3408, GlpT A267E), 500 µM (≈ 91.6 µg/mL); with S. schleiferi [3] (read-out: FSM MIC, strain SSCH3612, GlpT G99V) it was 688 µM (≈ 126 µg/mL); with S. schleiferi [3] (read-out: FSM MIC, strain SSCH3624 (second line), GlpT A309S), 562 µM (≈ 103 µg/mL); with S. schleiferi [3] (read-out: FSM MIC, strain SSCH3624, GlpT G99V), 688 µM (≈ 126 µg/mL). The MIC in the data set with S. schleiferi [3] (read-out: FSM MIC, strain SSCH3717, no GlpT change) was > 1500 µM; with S. schleiferi [3] (read-out: FSM MIC, strain SSCH4455, GlpT G298X) it was > 1500 µM; with S. schleiferi [3] (read-out: FSM MIC, strain SSCH4494, GlpT G99X), 750 µM (≈ 137 µg/mL); in the data set with S. schleiferi [3] (read-out: FSM MIC, strain SSCH7376, GlpT W148C), 438 µM (≈ 80.1 µg/mL); in the data set with S. schleiferi [3] (read-out: FSM MIC, strain SSCH8400, GlpT W161L), 469 µM (≈ 85.8 µg/mL); in the data set with S. schleiferi [3] (read-out: FSM MIC, strain SSCH8586, GlpT G99E), > 1500 µM. Also, the MIC with S. schleiferi [3] (read-out: FSM MIC, strain SSCH8774, GlpT Q379P) is > 1500 µM; with S. pseudintermedius [9] (read-out: FSM MIC, Parental S. pseudintermedius) it was 25.9 µM (≈ 4.74 µg/mL); in the data set on S. pseudintermedius [9] (read-out: FSM MIC, strain SPSE0643, GlpT W301X) it was 1120 µM (≈ 206 µg/mL); in the data set on S. pseudintermedius [9] (read-out: FSM MIC, strain SPSE1933, GlpT G99E), 875 µM (≈ 160 µg/mL); in the data set on S. pseudintermedius [9] (read-out: FSM MIC, strain SPSE2052, GlpT D88Y) it was 1120 µM (≈ 206 µg/mL); in the data set on S. pseudintermedius [9] (read-out: FSM MIC, strain SPSE2227, GlpT G135D) it was 1120 µM (≈ 206 µg/mL). Moreover, the MIC in the data set on S. pseudintermedius [9] (read-out: FSM MIC, strain SPSE2648, GlpT G99E) is 1000 µM (≈ 183 µg/mL); with S. pseudintermedius [9] (read-out: FSM MIC, strain SPSE5869, GlpT G135V), 938 µM (≈ 172 µg/mL); in the data set on S. pseudintermedius [9] (read-out: FSM MIC, strain SPSE6794, GlpT G99E), 1250 µM (≈ 229 µg/mL); in the data set on S. pseudintermedius [9] (read-out: FSM MIC, strain SPSE6909, GlpT G404D), 688 µM (≈ 126 µg/mL); in the data set on S. pseudintermedius [9] (read-out: FSM MIC, strain SPSE7104, GlpT G99E), 1250 µM (≈ 229 µg/mL); in the data set on S. pseudintermedius [9] (read-out: FSM MIC, strain SPSE7724, GlpT G400C), 1120 µM (≈ 206 µg/mL). The MIC in the data set with S. pseudintermedius [9] (read-out: FSM MIC, strain SPSE8628, no GlpT change) was found to be 1060 µM (≈ 195 µg/mL); with S. pseudintermedius [9] (read-out: FSM MIC, strain SPSE9765, no GlpT change), 1250 µM (≈ 229 µg/mL).

B1: S. schleiferi DXR enzyme (Staphylococcus schleiferi) (protein)
chain: MKNIAILGASGSIGQQAIDVIARHPESFNLISFTVGKNIEFAIEVIEKFKPEIVSVQDEADVERLKPYHSNIVSGRQGLIDVSTYEKNDLVLNALLGSVGLEPTMKAIEAGKNIALANKETLVVAGKLVMTHAKRYGVDILPVDSEHAAIFQCLNGEDMHKIKNVTITASGGSFRELTREQLEHVTVGDALNHPNWSMGNKITIDSATMMNKGFEVIEAKWLFDLKIDQIKTILHKESIIHSLVEFVDTSVMAQLGTPDMRMPIQYAFTYPERIEHRAPSLDLVQVAQLHFQEMDLDRYRCLKFAYDALRIGGSMPVVLNAVNEVAVAKFLNHEITFLEIEHMIEREMSAHEVIPDPSLEEILEIDHYYKTKSYEV
With B1, the Km – broadly, the concentration of substrate that gives half-maximal velocity – in data set [10] was 520 ± 80 µM.

The values above are taken from PMC7297381, “Potent, specific MEPicides for treatment of zoonotic staphylococci” (PLoS Pathogens, 2020).
